Laboratory results as given in patent US20240216343A1, “ENDOTHELIAL IK AND SK CHANNEL ACTIVATION TO TREAT PULMONARY HYPERTENSION” (UNIVERSITY OF VIRGINIA PATENT FOUNDATION, priority 2023, published 2024).
“Also recorded” adds a separate entry of the source.

How the values were obtained:
[1] = test system: pulmonary arteries from PH patient; test: Pressure myography of small pulmonary arteries from a human subject with PH; settings: ~50 μm arteries at 15 mm Hg pre-constricted with U46619; n=3 arteries
From the text: We tested whether IK/SK channel activation dilates pulmonary arteries from human subjects with PH. Deidentified human lung wedge samples were obtained from explanted lung during lung transplantation surgeries in a PH patient, in accordance with the policies of the University of Virginia Institutional Review Board (IRB #19044). Informed consent was obtained after the nature and possible consequences of the studies were explained. Multiple small pulmonary arteries (˜50 μm) were dissected and used for pressure myography experiments. Pulmonary arteries were cannulated at both ends and pressurized to a physiological intraluminal pressure of 15 mm Hg. The arteries were pre-constricted using U46619 (U466, thromboxane A2 receptor agonist, FIG. 6). Addition of NS309 (IK/SK channel agonist) dilated the pulmonary arteries from PH patient (FIG. 6).

[2] = test system: endothelial IK/SK channels; test: Whole-cell patch-clamp in freshly isolated ECs from small PAs; assay type: cell-based, mouse; settings: NS309 1 μmol/L; 250-ms voltage ramp −100 to +50 mV; ECs from N and Su+CH mice
Protocol: ECs were freshly isolated from PAs following a previously established protocol (21, 24). […] Worthington Biochemical Corporation; Lakewood; NJ; USA) for 30 minutes at 37° C. With this protocol for endothelial cell isolation, more than 95% of cells are CD31-positive. Whole-cell currents were measured at room temperature using conventional whole-cell patch-clamp electrophysiology. The bath solution consisted of 10 mmol/L HEPES, 134 mmol/L NaCl, 6 mmol/L KCl, 2 mmol/L CaCl2), 1 mmol/L MgCl2 hexahydrate, and 7 mmol/L dextrose (adjusted to pH 7.4 with NaOH). […] The pipette solution for conventional patch clamp consisted of 10 mmol/L HEPES, 123.2 mmol/L KCl, 10 mmol/L NaCl, 5.5 mmol/L MgCl2, 0.2 mmol/L CaCl2) and 5 mmol/L HEDTA (adjusted to pH 7.2 with 16.8 mm KOH) and contained 3 μm free-Ca^2+ and 1 mmol/L free-Mg^2+, as calculated using the Max-Chelator program (Chris Patton; Stanford University; Stanford; CA; USA). […] Data were acquired using a Multiclamp 700B amplifier connected to a Digidata 1550B system and analyzed using Clampfit 11.1 software (Molecular Devices, San Jose, CA, USA). […] IK/SK channel currents induced by the IK/SK channel agonist NS309 (1 μmol/L) were recorded following application of a 250-ms voltage ramp from -100 mV to +50 mV. […]

[3] = test system: fourth-order PAs; test: Pressure myography of mouse fourth-order PAs
From the text: Mouse fourth-order PAs (˜50 μm) were cannulated on glass micropipettes in a pressure myography chamber (The Instrumentation and Model Facility; University of Vermont; Burlington; VT; USA) and pressurized to a physiological pressure of 15 mm Hg (24). Briefly, freshly dissected lungs were placed in ice cold HEPES buffer in a dissection plate. The left lung was stretched and pinned down, with ventral side facing up. First, pulmonary veins, and then the airway were cut open to gain access to the pulmonary arteries underneath. Once PAs were visible, they were gently separated from surrounding tissue (25). Arteries were superfused with bicarbonate-physiological salt solution (PSS; 119 mmol/L NaCl; 4.7 mmol/L KCl; 1.2 mmol/L KH2PO4; 1.2 mmol/L MgCl2 hexahydrate; 2.5 mmol/L CaCl2) dihydrate; 7 mmol/L dextrose; and 24 mmol/L NaHCO3) at 37° ° C. and bubbled with 20% O2/5% CO2 to maintain the pH at 7.4. Approximately 20% PAs from normal mice develop myogenic tone, whereas ˜65% PA from Su+CH mice show myogenic tone at 15 mm Hg. Due to the relatively small percentage of PAs from normal mice showing myogenic tone, we pre-constricted all PAs with 30 nmol/L U46619 (a thromboxane A2 receptor agonist). […] U46619 was added to the chamber immediately, before the arteries could develop myogenic tone. Before measuring vascular reactivity, arteries were treated with NS309 (1 μmol/L), a direct activator of endothelial IK/SK channels, to assess endothelial health. […] Changes in arterial diameter were recorded at a 60-ms frame rate using a charge-coupled device camera and edge-detection software (IonOptix LLC; Westwood; MA; USA) (11, 26). At the end of each experiment, Ca^2+-free PSS (119 mmol/L NaCl; 4.7 mmol/L KCl; 1.2 mmol/L KH2PO4; 1.2 mmol/L MgCl2 hexahydrate; 7 mmol/L dextrose; 24 mmol/L NaHCO3; and 5 mmol/L EGTA) was applied to assess the maximum passive diameter. Percent constriction was calculated by:
[formula] • where Diameterbefore is the diameter of the artery before treatment and Diameterafter is the diameter after treatment. Percent dilation was calculated by:
[formula] • where Diameterbasal is the stable diameter before drug treatment, Diameterdilated is the diameter after drug treatment, and Diameterca-free is the maximum passive diameter.

[4] = test system: isolated perfused lungs; test: PAP in isolated perfused lungs (ex vivo lung perfusion); set-up: species or system mouse; settings: NS309 1 μmol/L
Protocol: PAP was evaluated using an IPL-1 ex vivo murine lung perfusion system (Harvard Apparatus; Holliston; MA; USA) as previously described (22, 23). Briefly, mice were anesthetized with isoflurane, after which a tracheostomy was performed, and animals were ventilated with room air at 150 strokes/min and a stroke volume of […]. […] The main pulmonary artery was cannulated through the right ventricle, and the left ventricle was tube-vented through a small incision at the apex of the heart. The lungs were then perfused at a constant flow rate of 0.5 mL min 1 with Krebs-Henseleit buffer (11 mmol/L glucose; 1.2 mmol/L MgSO4; 1.2 mmol/L KH2PO4; 4.7 mmol/L KCl; 118 mmol/L NaCl; 1.25 mmol/L CaCl2), and 25 mmol/L […]). The perfusate buffer and isolated lungs were maintained at 37° C. using a circulating water bath. Once properly perfused and ventilated, the isolated lungs were maintained on the system for a 10-minute equilibration period, after which hemodynamic and pulmonary parameters were recorded using the PULMODYN data acquisition system (Hugo Sachs Elektronik; Breisgau; Germany).

`O=C1Nc2c(ccc(Cl)c2Cl)C1=NO` [NS309, 6,7-dichloro-1H-indole-2,3-dione 3-oxime] was tested, and the “Dilation of human PH pulmonary arteries” value [1] was “dilated”, the “Outward currents at 0 mV in ECs, N vs Su+CH” value [2] was “not different between ECs from N and Su+CH groups” and the “Dilation of PAs that developed myogenic tone, N vs Su+CH” value ([3]; NS309 1 μmol/L) was “not different between N and Su+CH groups”. The “Dilation of small PAs, N vs Su+CH” value ([3]; NS309 0.3-1 μmol/L, PAs at 15 mm Hg pre-constricted with U46619 30 nmol/L) was “not different between N and Su+CH mice; also recorded: not different between PAs from control and CH+Su mice”, the “PAP in isolated perfused lungs, N mice” value ([4]; N mice) was “not in N mice” and the “PAP in isolated perfused lungs, Su+CH mice” value ([4]; Su+CH mice) was “decreased”.
